# Patent US12643903B2, “Bifunctional compounds for degradation of EGFR and related methods of use” (BeiGene, Ltd., priority 2020, dated 2026)
# Tests used:
# EGFR DTC = assay: Cell Degradation 3: EGFR degradation in BaF3 cells (DTC), HTRF assay; assay type: cell-based; settings: 16 h treatment, EGFR degradation by HTRF
# Method: (§1) Cell Degradation 3 Cell Treatment
# (§2) BaF3 cells are treated with compounds diluted in 0.2% DMSO, dilution is done according to the following protocol: (1) make 500× stock solution in DMSO from 5 mM by 4-fold dilution, total 8 doses were included; (2) make 2× solution in cell culture medium by transferring 0.5 μl 500× stock solution into 125 μl medium; (3) 30 μl of 2× solution is added to cells and incubate for 16 h.
# (§3) After 16 h treatment, add 20 μl 4×lysis buffer to each well; seal the plate and incubate 1 hour at room temperature on a plate shaker; Once the cells are lysed, 16 μL of cell lysate are transferred to a PE 384-well HTRF detection plate (for triple mutant cells, the lysate were diluted by the qual volume 1×lysis buffer before transfer); 4 μL of pre-mixed HTRF antibodies are added to each well; Cover the plate with a plate sealer, spin 1000 rpm for 1 min, Incubate overnight at room temperature; Read on BMG PheraStar with HTRF protocol (337 nm-665 nm-620 nm).
# (§4) The IC50 (DC50) value of a compound can be obtained by fitting the following equation Y=Bottom+(TOP−Bottom)/(1+((IC50/X)^hillslope))
# (§5) Wherein, X and Y are known values, and IC50, Hillslope, Top and Bottom are the parameters obtained by fitting with software. Y is the inhibition percentage (calculated from the equation), X is the concentration of the compound; IC50 is the concentration of the compound when the 50% inhibition is reached. The smaller the IC50 value is, the stronger the inhibitory ability of the compound is. Vice versa, the higher the IC50 value is, the weaker the ability the inhibitory ability of the compound is; Hillslope represents the slope of the fitted curve, generally around 1*; Bottom represents the minimum value of the curve obtained by data fitting, which is generally 0%±20%; Top represents the maximum value of the curve obtained by data fitting, which is generally 100%±20%. The experimental data were fitted by calculating and analyzing with Dotmatics data analysis software.
# EGFR LTC = target: T1, EGFR LTC (Homo sapiens, UniProt P00533, C797S/L858R/T790M); assay: Cell Degradation 3: EGFR degradation in BaF3 cells (LTC), HTRF assay; assay type: cell-based; settings: 16 h treatment, EGFR degradation by HTRF
# T1 construct: expressed in transfected cells; host or cells: BaF3
# Method: as §1, §2, §3, §4, §5
# T1 sequence (P00533 25-1210 T790M/C797S/L858R): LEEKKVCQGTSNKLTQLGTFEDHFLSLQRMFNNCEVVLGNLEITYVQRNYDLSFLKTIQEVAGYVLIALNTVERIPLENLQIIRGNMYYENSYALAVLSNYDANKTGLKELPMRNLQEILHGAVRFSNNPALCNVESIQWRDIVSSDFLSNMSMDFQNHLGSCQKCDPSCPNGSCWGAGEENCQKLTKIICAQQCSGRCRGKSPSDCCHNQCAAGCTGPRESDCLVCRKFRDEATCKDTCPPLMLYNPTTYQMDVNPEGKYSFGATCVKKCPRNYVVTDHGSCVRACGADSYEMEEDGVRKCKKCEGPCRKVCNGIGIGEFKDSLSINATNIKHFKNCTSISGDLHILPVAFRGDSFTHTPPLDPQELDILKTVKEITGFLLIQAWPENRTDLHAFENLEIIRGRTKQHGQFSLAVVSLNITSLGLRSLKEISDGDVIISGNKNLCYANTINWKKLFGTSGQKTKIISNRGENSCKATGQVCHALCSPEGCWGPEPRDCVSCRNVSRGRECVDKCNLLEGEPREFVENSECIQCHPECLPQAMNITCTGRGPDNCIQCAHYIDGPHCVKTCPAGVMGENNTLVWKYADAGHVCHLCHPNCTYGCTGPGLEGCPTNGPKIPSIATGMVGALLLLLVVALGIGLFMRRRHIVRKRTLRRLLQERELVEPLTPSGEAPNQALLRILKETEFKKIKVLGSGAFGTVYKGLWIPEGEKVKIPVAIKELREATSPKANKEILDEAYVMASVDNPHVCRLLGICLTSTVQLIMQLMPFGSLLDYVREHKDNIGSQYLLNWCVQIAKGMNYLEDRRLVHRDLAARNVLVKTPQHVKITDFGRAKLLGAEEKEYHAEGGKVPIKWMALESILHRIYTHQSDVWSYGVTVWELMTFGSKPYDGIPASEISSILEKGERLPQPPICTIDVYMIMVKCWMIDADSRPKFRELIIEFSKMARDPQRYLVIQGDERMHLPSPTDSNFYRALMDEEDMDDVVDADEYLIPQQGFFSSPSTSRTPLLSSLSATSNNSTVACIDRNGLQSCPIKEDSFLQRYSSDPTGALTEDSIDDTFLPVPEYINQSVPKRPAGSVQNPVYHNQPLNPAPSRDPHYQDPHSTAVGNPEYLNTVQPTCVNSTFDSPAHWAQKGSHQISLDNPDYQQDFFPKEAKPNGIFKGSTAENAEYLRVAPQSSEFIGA
Compound,DC50 (EGFR DTC) [nM],DC50 (EGFR LTC) [nM]
"COc1cc(N2CCC(N3CCN(C(=O)[C@H]4C[C@H](N(C)c5ccc(C6CCC(=O)NC6=O)cc5)C4)CC3)CC2)c(C)cc1Nc1ncc(Br)c(Nc2cccc3c2N(S(C)(=O)=O)CC3)n1 (stereo partly shown) [Example 170, 3-(4-(((1r,3r)-3-(4-(1-(4-((5-bromo-4-((1-(methylsulfonyl)indolin-7-yl)amino)pyrimidin-2-yl)amino)-5-methoxy-2-methylphenyl)piperidin-4-yl)piperazine-1-carbonyl)cyclobutyl)(methyl)amino)phenyl)piperidine-2,6-dione]",8,23
"COc1cc(N2CCC(N3CCN(C4CCN(c5cccc(C6CCC(=O)NC6=O)c5)CC4)CC3)CC2)c(C)cc1Nc1ncc(Br)c(Nc2cccc3c2N(S(C)(=O)=O)CC3)n1 (stereo not shown) [Example 177, 3-(3-(4-(4-(1-(4-((5-bromo-4-((1-(methylsulfonyl)indolin-7-yl)amino)pyrimidin-2-yl)amino)-5-methoxy-2-methylphenyl)piperidin-4-yl)piperazin-1-yl)piperidin-1-yl)phenyl)piperidine-2,6-dione]",> 10000,123
"COc1cc(N2CCC(N3CCN(C[C@H]4C[C@H](N(C)c5ccc(C6CCC(=O)NC6=O)cc5)C4)CC3)CC2)c(C)cc1Nc1ncc(Br)c(Nc2cccc3c2N(S(C)(=O)=O)CC3)n1 (stereo partly shown) [Example 176, 3-(4-(((1r,3r)-3-((4-(1-(4-((5-bromo-4-((1-(methylsulfonyl)indolin-7-yl)amino)pyrimidin-2-yl)amino)-5-methoxy-2-methylphenyl)piperidin-4-yl)piperazin-1-yl)methyl)cyclobutyl)(methyl)amino)phenyl)piperidine-2,6-dione]",94,65
"COc1cc(N2CCC(N3CCN(CCc4ccc(C5CCC(=O)NC5=O)c(F)c4)CC3)CC2)c(C)cc1Nc1nc(Nc2cccc3c2N(S(C)(=O)=O)CC3)c2cc[nH]c2n1 (stereo not shown) [Example 162, 3-(2-fluoro-4-(2-(4-(1-(5-methoxy-2-methyl-4-((4-((1-(methylsulfonyl)indolin-7-yl)amino)-7H-pyrrolo[2,3-d]pyrimidin-2-yl)amino)phenyl)piperidin-4-yl)piperazin-1-yl)ethyl)phenyl)piperidine-2,6-dione]",78,> 10000
"COc1cc(N2CCC(N3CCN(C(=O)[C@H]4C[C@H](N(C)c5ccc6c(c5)C(=O)N(C5CCC(=O)NC5=O)C6=O)C4)CC3)CC2)c(C)cc1Nc1ncc(Br)c(Nc2cccc3c2N(S(C)(=O)=O)CC3)n1 (stereo partly shown) [Example 158, 5-(((1r,3r)-3-(4-(1-(4-((5-bromo-4-((1-(methylsulfonyl)indolin-7-yl)amino)pyrimidin-2-yl)amino)-5-methoxy-2-methylphenyl)piperidin-4-yl)piperazine-1-carbonyl)cyclobutyl)(methyl)amino)-2-(2,6-dioxopiperidin-3-yl)isoindoline-1,3-dione]",19,41
"COc1cc(N2CCC(N3CCN(C(=O)C4CCN(c5cc(F)c(C6CCC(=O)NC6=O)c(F)c5)C4)CC3)CC2)c(C)cc1Nc1ncc(Br)c(Nc2cccc3c2N(S(C)(=O)=O)CC3)n1 (stereo not shown) [Example 187, 3-(4-(3-(4-(1-(4-((5-bromo-4-((1-(methylsulfonyl)indolin-7-yl)amino)pyrimidin-2-yl)amino)-5-methoxy-2-methylphenyl)piperidin-4-yl)piperazine-1-carbonyl)pyrrolidin-1-yl)-2,6-difluorophenyl)piperidine-2,6-dione]",14,19
"COc1cc(N2CCC(N3CCN(CCc4cc(F)c(C5CCC(=O)NC5=O)cc4F)CC3)CC2)c(C)cc1Nc1ncc(Br)c(Nc2cccc3c2N(S(C)(=O)=O)CC3)n1 (stereo not shown) [Example 155, 3-(4-(2-(4-(1-(4-((5-bromo-4-((1-(methylsulfonyl)indolin-7-yl)amino)pyrimidin-2-yl)amino)-5-methoxy-2-methylphenyl)piperidin-4-yl)piperazin-1-yl)ethyl)-2,5-difluorophenyl)piperidine-2,6-dione]",19,56
"COc1cc(N2CCC(N3CCN(C4CCN(c5ccc6c(c5)C(=O)N(C5CCC(=O)NC5=O)C6=O)CC4)CC3)CC2)c(C)cc1Nc1ncc(Br)c(Nc2cccc3c2N(S(C)(=O)=O)CC3)n1 (stereo not shown) [Example 167, 5-(4-(4-(1-(4-((5-bromo-4-((1-(methylsulfonyl)indolin-7-yl)amino)pyrimidin-2-yl)amino)-5-methoxy-2-methylphenyl)piperidin-4-yl)piperazin-1-yl)piperidin-1-yl)-2-(2,6-dioxopiperidin-3-yl)isoindoline-1,3-dione]",225,> 10000
"CCc1cc(Nc2ncc(Br)c(Nc3ccc(F)c4c3N(S(C)(=O)=O)CC4)n2)c(OC)cc1N1CCC(N2CCN(C(=O)[C@@H]3CCN(c4cc(F)c([C@H]5CCC(=O)NC5=O)c(F)c4)C3)CC2)CC1 [Example 194, (R)-3-(4-((R)-3-(4-(1-(4-((5-bromo-4-((4-fluoro-1-(methylsulfonyl)indolin-7-yl)amino)pyrimidin-2-yl)amino)-2-ethyl-5-methoxyphenyl)piperidin-4-yl)piperazine-1-carbonyl)pyrrolidin-1-yl)-2,6-difluorophenyl)piperidine-2,6-dione]",,29

# Continued by falling DC50 (EGFR LTC), values first:
DC50 (EGFR DTC) [nM],DC50 (EGFR LTC) [nM],Compound
300,396,"COc1cc(N2CCC(N3CCN(CCN4CCC(c5ccc(NC6CCC(=O)NC6=O)cc5)CC4)CC3)CC2)c(C)cc1Nc1ncc(Br)c(Nc2cccc3c2N(S(C)(=O)=O)CC3)n1 (stereo not shown) [Example 157, 3-((4-(1-(2-(4-(1-(4-((5-bromo-4-((1-(methylsulfonyl)indolin-7-yl)amino)pyrimidin-2-yl)amino)-5-methoxy-2-methylphenyl)piperidin-4-yl)piperazin-1-yl)ethyl)piperidin-4-yl)phenyl)amino)piperidine-2,6-dione]"
30,69,"COc1cc(N2CCC(N3CCN(CCc4cc(Cl)c(C5CCC(=O)NC5=O)cc4F)CC3)CC2)c(C)cc1Nc1ncc(Br)c(Nc2cccc3c2N(S(C)(=O)=O)CC3)n1 (stereo not shown) [Example 174, 3-(4-(2-(4-(1-(4-((5-bromo-4-((1-(methylsulfonyl)indolin-7-yl)amino)pyrimidin-2-yl)amino)-5-methoxy-2-methylphenyl)piperidin-4-yl)piperazin-1-yl)ethyl)-2-chloro-5-fluorophenyl)piperidine-2,6-dione]"
,34,"CCc1cc(Nc2ncc(Br)c(Nc3ccc(CC)c4c3N(S(C)(=O)=O)CC4)n2)c(OC)cc1N1CCC(N2CCN(C(=O)[C@@H]3CCN(c4cc(F)c([C@H]5CCC(=O)NC5=O)c(F)c4)C3)CC2)CC1 [Example 198, (R)-3-(4-((R)-3-(4-(1-(4-((5-bromo-4-((4-ethyl-1-(methylsulfonyl)indolin-7-yl)amino)pyrimidin-2-yl)amino)-2-ethyl-5-methoxyphenyl)piperidin-4-yl)piperazine-1-carbonyl)pyrrolidin-1-yl)-2,6-difluorophenyl)piperidine-2,6-dione]"
17,31,"COc1cc(N2CCC(N3CCN(CC4CCN(c5ccc6c(c5)CN(C5CCC(=O)NC5=O)C6=O)CC4)CC3)CC2)c(C)cc1Nc1ncc(Br)c(Nc2cccc3c2N(S(C)(=O)=O)CC3)n1 (stereo not shown) [Example 175, 3-(5-(4-((4-(1-(4-((5-bromo-4-((1-(methylsulfonyl)indolin-7-yl)amino)pyrimidin-2-yl)amino)-5-methoxy-2-methylphenyl)piperidin-4-yl)piperazin-1-yl)methyl)piperidin-1-yl)-1-oxoisoindolin-2-yl)piperidine-2,6-dione]"
66,27,"COc1cc(N2CCC(N3CCN(CCc4ccc(NC5CCC(=O)NC5=O)cc4)CC3)CC2)c(C)cc1Nc1ncc(Br)c(Nc2cccc3c2N(S(C)(=O)=O)CC3)n1 (stereo not shown) [Example 152, 3-((4-(2-(4-(1-(4-((5-bromo-4-((1-(methylsulfonyl)indolin-7-yl)amino)pyrimidin-2-yl)amino)-5-methoxy-2-methylphenyl)piperidin-4-yl)piperazin-1-yl)ethyl)phenyl)amino)piperidine-2,6-dione]"
4,18,"COc1cc(N2CCC(N3CCN(CCc4cc(F)c(C5CCC(=O)NC5=O)c(F)c4)CC3=O)CC2)c(C)cc1Nc1ncc(Br)c(Nc2cccc3c2N(S(C)(=O)=O)CC3)n1 (stereo not shown) [Example 185, 3-(4-(2-(4-(1-(4-((5-bromo-4-((1-(methylsulfonyl)indolin-7-yl)amino)pyrimidin-2-yl)amino)-5-methoxy-2-methylphenyl)piperidin-4-yl)-3-oxopiperazin-1-yl)ethyl)-2,6-difluorophenyl)piperidine-2,6-dione]"
